Source: the supplement of paper PMC11061612

Legend:
Test in all cases: combination Emax (second highest fraction inhibited in the dose matrix, 72 h); higher = more inhibition; extreme values may be limits of the assay
CAL-78 (Chondrosarcoma) = tested on: CAL-78 (Chondrosarcoma)
Outline: (§1)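 Cell lines in DMEM/F12 or RPMI with 10% FBS were plated in 1536-well plates, held 24 hours at 37°C, 5% CO2, then given two-drug dose matrices for 72 hours (DMSO typically 0.2%). Viability was read by CellTiter-Glo 2.0 luminescence and scaled as inhibition from 0 (vehicle wells) to 1 (blank wells). Combination Emax is the second-highest inhibition in the matrix; Bliss excess is observed combination effect minus expected EA + EB − EA·EB, EA and EB being single-agent effects.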

[1] = tested on: CFPAC-1 (Pancreatic Carcinoma)
Outline: as §1

[2] = tested on: COR-L23 (Non-Small Cell Lung Carcinoma)
Outline: as §1

[3] = tested on: CTV-1 (T-Lymphoblastic Leukemia)
Outline: as §1

[4] = tested on: DB (B-Cell Non-Hodgkin's Lymphoma)
Outline: as §1

DSH1 (Bladder Carcinoma) = tested on: DSH1 (Bladder Carcinoma)
Outline: as §1

[5] = tested on: EM-2 (Chronic Myelogenous Leukemia)
Outline: as §1

ES7 (Ewing's Sarcoma) = tested on: ES7 (Ewing's Sarcoma)
Outline: as §1

[6] = tested on: HCC2157 (Breast Carcinoma)
Outline: as §1

[7] = tested on: HT-29 (Colorectal Carcinoma)
Outline: as §1

J82 (Bladder Carcinoma) = tested on: J82 (Bladder Carcinoma)
Outline: as §1

[8] = tested on: KARPAS-620 (Plasma Cell Myeloma)
Outline: as §1

[9] = tested on: KM-H2 (Hodgkin's Lymphoma)
Outline: as §1

[10] = tested on: LU-99A (Non-Small Cell Lung Carcinoma)
Outline: as §1

[11] = tested on: MDA-MB-231 (Breast Carcinoma)
Outline: as §1

NCI-H2369 (Mesothelioma) = tested on: NCI-H2369 (Mesothelioma)
Outline: as §1

RH-1 (Ewing's Sarcoma) = tested on: RH-1 (Ewing's Sarcoma)
Outline: as §1

[12] = tested on: SNU-C5 (Colorectal Carcinoma)
Outline: as §1

[13] = tested on: SUIT-2 (Pancreatic Carcinoma)
Outline: as §1

[14] = tested on: U-266 (Plasma Cell Myeloma)
Outline: as §1

| SMILES | combination Emax (CAL-78 (Chondrosarcoma)) | combination Emax [1] | combination Emax [2] | combination Emax [3] | combination Emax [4] | combination Emax (DSH1 (Bladder Carcinoma)) | combination Emax [5] | combination Emax (ES7 (Ewing's Sarcoma)) | combination Emax [6] | combination Emax [7] | combination Emax (J82 (Bladder Carcinoma)) | combination Emax [8] | combination Emax [9] | combination Emax [10] | combination Emax [11] | combination Emax (NCI-H2369 (Mesothelioma)) | combination Emax (RH-1 (Ewing's Sarcoma)) | combination Emax [12] | combination Emax [13] | combination Emax [14] |
| --- | --- | --- | --- | --- | --- | --- | --- | --- | --- | --- | --- | --- | --- | --- | --- | --- | --- | --- | --- | --- |
| Cc1c2c(nn1C)CSCc1cc(n(C)n1)CSc1cc(c3ccccc3c1)OCCCc1c(C(=O)O)n(C)c3c-2c(Cl)ccc13 [AZD5991] + C=CCn1c(=O)c2cnc(Nc3ccc(N4CCN(C)CC4)cc3)nc2n1-c1cccc(C(C)(C)O)n1 [AZD1775] (first compound max 1 µM, partner max 1 µM) | 0.853 | 0.555 | 0.605 | 0.925 | 0.999 | 0.791 | 0.983 | 0.732 | 0.979 | 0.877 | 0.314 | 1 | 0.968 | 0.428 | 0.418 | 0.327 | 0.994 | 0.732 | 0.555 | 0.99 |
| Cc1c2c(nn1C)CSCc1cc(n(C)n1)CSc1cc(c3ccccc3c1)OCCCc1c(C(=O)O)n(C)c3c-2c(Cl)ccc13 [AZD5991] + CC1(C)CCC(CN2CCN(c3ccc(C(=O)NS(=O)(=O)c4ccc(NCC5CCOCC5)c([N+](=O)[O-])c4)c(Oc4cnc5[nH]ccc5c4)c3)CC2)=C(c2ccc(Cl)cc2)C1 [Venetoclax] (first compound max 1 µM, 7x7, partner max 1 µM) | 0.796 | 0.143 | 0.164 | 0.13 | 1 | 0.964 | 0.975 | 0.893 | 0.985 | 0.189 | 0.164 | 1 | 0.312 | 0.111 | 0.216 | 0.147 | 0.766 | 0.204 | 0.209 | 0.97 |
| Cc1c2c(nn1C)CSCc1cc(n(C)n1)CSc1cc(c3ccccc3c1)OCCCc1c(C(=O)O)n(C)c3c-2c(Cl)ccc13 [AZD5991] + CCN(CCO)CCCOc1ccc2c(Nc3cc(CC(=O)Nc4cccc(F)c4)[nH]n3)ncnc2c1 [AZD2811] (first compound max 1 µM, 7x7, partner max 1 µM) | 0.868 | 0.256 | 0.201 | 0.278 | 0.987 | 0.839 | 0.906 | 0.95 | 0.985 | 0.383 | 0.192 | 1 | 0.271 | 0.37 | 0.321 | 0.176 | 0.956 | 0.288 | 0.19 | 0.945 |
| Cc1c2c(nn1C)CSCc1cc(n(C)n1)CSc1cc(c3ccccc3c1)OCCCc1c(C(=O)O)n(C)c3c-2c(Cl)ccc13 [AZD5991] + C[C@@H]1COCCN1C2=NC(=NC(=C2)C3(CC3)[S@](=N)(=O)C)C4=C5C=CNC5=NC=C4 [AZD6738] (first compound max 1 µM, 7x7, partner max 10 µM) | 0.796 | 0.555 | 0.57 | 0.781 | 0.999 | 0.919 | 0.98 | 0.852 | 0.998 | 0.836 | 0.389 | 1 | 0.814 | 0.572 | 0.546 | 0.247 | 0.956 | 0.795 | 0.424 | 0.95 |
| Cc1c2c(nn1C)CSCc1cc(n(C)n1)CSc1cc(c3ccccc3c1)OCCCc1c(C(=O)O)n(C)c3c-2c(Cl)ccc13 [AZD5991] + C[C@@H](Nc1cc(F)cc(F)c1)c1cc(C(=O)N(C)C)cc2c(=O)cc(N3CCOCC3)oc12 [AZD8186] (first compound max 1 µM, 7x7, partner max 3 µM) | 0.875 | 0.294 | 0.104 | 0.143 | 0.974 | 0.582 | 0.259 | 0.95 | 0.987 | 0.24 | 0.234 | 1 | 0.11 | 0.275 | 0.23 | 0.24 | 0.827 | 0.254 | 0.175 | 0.894 |
| Cc1c2c(nn1C)CSCc1cc(n(C)n1)CSc1cc(c3ccccc3c1)OCCCc1c(C(=O)O)n(C)c3c-2c(Cl)ccc13 [AZD5991] + Cc1cc2ncnn2cc1Nc1ncc2c(n1)n(C1CCOCC1)c(=O)n2C [AZD7648] (first compound max 1 µM, 7x7, partner max 10 µM) | 0.782 | 0.259 | 0.131 | 0.29 | 0.995 | 0.67 | 0.446 | 0.682 | 0.984 | 0.223 | 0.187 | 1 | 0.172 | 0.414 | 0.333 | 0.17 | 0.605 | 0.267 | 0.179 | 0.945 |
